Values quoted from earlier work as cited in US7087769B1, “Process for the preparation of cationic surfactants” (Laboratorios Miret, S.A., priority 2000, dated 2006).
Where two headings read alike, the source gives them in different places.

Tests used:
[1] = system: Escherichia coli; details: EP-A-0 749 960
[2] = system: Staphylococcus aureus; details: EP-A-0 749 960
[3] = system: Pseudomonas aeruginosa; details: EP-A-0 749 960
[4] = system: Candida albicans; details: EP-A-0 749 960
[5] = system: Aspergillus niger; details: EP-A-0 749 960
[6] = system: Alcaligenes faecalis
[7] = system: Bordetella bronchiseptica
[8] = system: Citrobacter freundii
[9] = system: Enterobacter aerogenes
[10] = system: Klebsiella pneumoniae spp. pneumoniae
[11] = system: Proteus mirabilis
[12] = system: Salmonelly thyphimurium
[13] = system: Serratia marcescens
[14] = system: Bacillus subtilus
[15] = system: Bacillus cereus spp. mycoide
[16] = system: Micrococcus luteus
[17] = system: Arthrobacter oxydans
[18] = system: Mycobacterium phlei
[19] = system: Listeria monocytogenes
[20] = system: Rhodotorula rubra
[21] = system: Saccharomyces cerevisiae
[22] = system: Zygosaccharomyces rouxii
[23] = system: Mucor rouxii
[24] = system: Aureobasidium pullulans
[25] = system: Chaetonium globosum
[26] = system: Gliocadium virens
[27] = system: Penicillium chrysogenum
[28] = system: Penicillium funiculosum
[29] = animals
[30] = human beings

## CCCCCCCCCCCC(=O)N[C@@H](CCCNC(=N)N)C(=O)OCC.Cl [ethyl ester of N^α-lauroyl-L-arginine monohydrochloride]
[1]
  efficacy against microorganism: proven
[2]
  efficacy against microorganism: proven
[3]
  efficacy against microorganism: proven
[4]
  efficacy against microorganism: proven
[5]
  efficacy against microorganism: proven
[6]
  efficacy against bacteria: efficaceous
[7]
  efficacy against bacteria: efficaceous
[8]
  efficacy against bacteria: efficaceous
[9]
  efficacy against bacteria: efficaceous
[10]
  efficacy against bacteria: efficaceous
[11]
  efficacy against bacteria: efficaceous
[12]
  efficacy against bacteria: efficaceous
[13]
  efficacy against bacteria: efficaceous
[14]
  efficacy against bacteria: efficaceous
[15]
  efficacy against bacteria: efficaceous
[16]
  efficacy against bacteria: efficaceous
[17]
  efficacy against bacteria: efficaceous
[18]
  efficacy against bacteria: efficaceous
[19]
  efficacy against bacteria: efficaceous
[20]
  efficacy against yeasts: efficaceous
[21]
  efficacy against yeasts: efficaceous
[22]
  efficacy against yeasts: efficaceous
[23]
  efficacy against fungi: efficaceous
[24]
  efficacy against fungi: efficaceous
[25]
  efficacy against fungi: efficaceous
[26]
  efficacy against fungi: efficaceous
[27]
  efficacy against fungi: efficaceous
[28]
  efficacy against fungi: efficaceous
[29]
  tolerability: well tolerated
[30]
  tolerability: well tolerated
